Assays:
Format in all cases: cell-based
Septoria tritici = assay: Activity against leaf blotch on wheat caused by Septoria tritici (microtiter plate test); settings: 0.25 ppm; 7 days after inoculation, 405 nm
Botrytis cinerea = assay: Activity against the grey mold Botrytis cinerea in the microtiterplate test; settings: 7 days after inoculation, 405 nm
Pyricularia oryzae = settings: 4 ppm; 7 days after inoculation, 405 nm
Sclerotinia sclerotiorum = assay: Activity against stem rot on wheat caused by Sclerotinia sclerotiorum (microtiter plate test); settings: 7 days after inoculation, 405 nm

Structure (SMILES) | Observed efficacy (Septoria tritici) | Observed efficacy (Botrytis cinerea; 1 ppm) | Observed efficacy (Botrytis cinerea; 4 ppm) | Observed efficacy (Pyricularia oryzae) | Observed efficacy (Sclerotinia sclerotiorum; 1 ppm) | Observed efficacy (Sclerotinia sclerotiorum; 4 ppm) | Observed efficacy (Sclerotinia sclerotiorum; 16 ppm)
O=C(Nc1ccccc1-c1ccc(Cl)cc1)c1cccnc1Cl [Boscalid, 2-chloro-N-(4'-chlorobiphenyl-2-yl)-nicotinamide] | 40% |  |  |  |  |  | 
Cc1cc(C)nc(Nc2ccccc2)n1 [Pyrimethanil, 4,6-dimethylpyrimidin-2-ylphenylamine] |  | 39% | 60% | 37% | 20% | 27% | 49%

— EP3318127A1, “COMPOSITIONS COMPRISING KHCO3” (BASF SE, priority 2013, dated 2015)
